In brackets after ≈: the same amount, converted by molar mass.
Columns and labels:
Assay type in all cases: physicochemical
[1] = Screening of the salt form and of the crystal form of the salt; details: 40 to 50° C., stirred overnight
Method: 2.1 Screening of the salt form of the compound
2.1.1 Experimental objective: To screen the salt form of the compound.
Salt forming by solventing out or suspension: 10 mg of compound 2-(2-cyano-5-oxo-8-(trifluoromethyl)pyrazolo[1,5-a]pyrido[3,2-e]pyrimidin-4(5H)-yl)-N-(5-fluoropyridin-2-yl)acetamide was weighed, to which 200 μL to 400 μL of solvent was added. The solution was stirred at 40 to 50° C., to which different acids were added respectively. The solution was stirred overnight, cooled to room temperature, filtered, and dried to obtain the salt of the compound.
3.1 Study on the crystal form of the salt of 2-(2-cyano-5-oxo-8-(trifluoromethyl)pyrazolo[1,5-a]pyrido[3,2-e]pyrimidin-4(5H)-yl)-N-(5-fluoropyridin-2-yl)acetamide
3.1.1 Experimental objective: To screen the salt of compound 2-(2-cyano-5-oxo-8-(trifluoromethyl)pyrazolo[1,5-a]pyrido[3,2-e]pyrimidin-4(5H)-yl)-N-(5-fluoropyridin-2-yl)acetamide that can form a crystal form.
2) Operating procedures: Salt forming by solventing out or suspension: 10 mg of the compound was weighed, to which 200 μL to 400 μL of solvent was added. The solution was stirred at 40 to 50° C., to which different acids were added respectively. The solution was stirred overnight, cooled to room temperature, filtered, and dried to obtain the salt of the compound.

[2] = Hygroscopicity experiment (DVS); details: 25° C.
Excerpt: 7.1 Hygroscopicity experiment of crystal forms of different salts of compound 2-(2-cyano-5-oxo-8-(trifluoromethyl)pyrazolo[1,5-a]pyrido[3,2-e]pyrimidin-4(5H)-yl)-N-(5-fluoropyridin-2-yl)acetamide
7.1.1 Experimental objective: To investigate the hygroscopicity of crystal forms of different salts of compound 2-(2-cyano-5-oxo-8-(trifluoromethyl)pyrazolo[1,5-a]pyrido[3,2-e]pyrimidin-4(5H)-yl)-N-(5-fluoropyridin-2-yl)acetamide at different relative humidity, so as to provide a basis for storage.
7.1.2 Experimental protocol: Crystal forms of different salts of the compound were placed in saturated water vapor with different relative humidity to achieve dynamic equilibrium between the compound and water vapor, and the percentage of hygroscopic weight gain of the compound after equilibrium was calculated.

[3] = Solubility experiment in different media; details: room temperature, 24 hours
Method: The vials were placed on a spin mixer overnight at room temperature. After 24 hours, the sample solution was filtered through a 0.45 μm mixed aqueous fiber membrane. The content of the compound in the filtrate was determined by HPLC. [table]

[4] = solvent Dichloromethane (400 μL)
[5] = solvent Tetrahydrofuran (200 μL)
[6] = Cycle 1, target relative humidity 0.0%
[7] = Cycle 1, target relative humidity 10.0%
[8] = Cycle 1, target relative humidity 20.0%
[9] = Cycle 1, target relative humidity 30.0%
[10] = Cycle 1, target relative humidity 40.0%
[11] = Cycle 1, target relative humidity 50.0%
[12] = Cycle 1, target relative humidity 60.0%
[13] = Cycle 1, target relative humidity 70.0%
[14] = Cycle 1, target relative humidity 80.0%
[15] = Cycle 1, target relative humidity 90.0%
[16] = Cycle 1, target relative humidity 95.0%
[17] = Cycle 2, target relative humidity 0.0%
[18] = Cycle 2, target relative humidity 10.0%
[19] = Cycle 2, target relative humidity 20.0%
[20] = Cycle 2, target relative humidity 30.0%
[21] = Cycle 2, target relative humidity 40.0%
[22] = Cycle 2, target relative humidity 50.0%
[23] = Cycle 2, target relative humidity 60.0%
[24] = Cycle 2, target relative humidity 70.0%
[25] = Cycle 2, target relative humidity 80.0%
[26] = Cycle 2, target relative humidity 90.0%
[27] = Cycle 2, target relative humidity 95.0%

CS(=O)(=O)O [Methanesulfonic acid]
Results (salt forming with acid, 1M in EtOH) ([1]; solvent 2-Butanone (250 μL)): Crystal form
Results (salt forming with acid, 1M in EtOH) ([1]; solvent Acetone (400 μL)): Crystal form
Results (salt forming with acid, 1M in EtOH) [1, 4]: Crystal form
Results (salt forming with acid, 1M in EtOH) ([1]; solvent Methanol (400 μL)): Crystal form
Results (salt forming with acid, 1M in EtOH) [1, 5]: Crystal form

O=S(=O)(O)O [Sulfuric acid]
Results (salt forming with acid, 1M in EtOH) ([1]; solvent 2-Butanone (250 μL)): Crystal form
Results (salt forming with acid, 1M in EtOH) ([1]; solvent Acetone (400 μL)): Crystal form
Results (salt forming with acid, 1M in EtOH) [1, 4]: Crystal form
Results (salt forming with acid, 1M in EtOH) ([1]; solvent Methanol (400 μL)): Crystal form
Results (salt forming with acid, 1M in EtOH) [1, 5]: Crystal form

Br [Hydrobromic acid]
Results (salt forming with acid, 1M in EtOH) ([1]; solvent 2-Butanone (250 μL)): Crystal form
Results (salt forming with acid, 1M in EtOH) ([1]; solvent Acetone (400 μL)): Crystal form
Results (salt forming with acid, 1M in EtOH) [1, 4]: Crystal form
Results (salt forming with acid, 1M in EtOH) ([1]; solvent Methanol (400 μL)): Crystal form
Results (salt forming with acid, 1M in EtOH) [1, 5]: Crystal form

Cl.N#Cc1cc2n(CC(=O)Nc3ccc(F)cn3)c(=O)c3ccc(C(F)(F)F)nc3n2n1 [Hydrochloride (crystal form A), 2-(2-cyano-5-oxo-8-(trifluoromethyl)pyrazolo[1,5-a]pyrido[3,2-e]pyrimidin-4(5H)-yl)-N-(5-fluoropyridin-2-yl)acetamide hydrochloride]
% percentage of mass change, Desorption [2, 6]: −0.041%
% percentage of mass change, Sorption [2, 6]: 0.000%
% percentage of mass change, Desorption [2, 7]: 0.130%
% percentage of mass change, Sorption [2, 7]: 0.131%
% percentage of mass change, Desorption [2, 8]: 0.313%
% percentage of mass change, Sorption [2, 8]: 0.275%
% percentage of mass change, Desorption [2, 9]: 7.258%
% percentage of mass change, Sorption [2, 9]: 4.325%
% percentage of mass change, Desorption [2, 10]: 7.532%
% percentage of mass change, Sorption [2, 10]: 7.346%
% percentage of mass change, Desorption [2, 11]: 7.722%
% percentage of mass change, Sorption [2, 11]: 7.466%
% percentage of mass change, Desorption [2, 12]: 7.825%
% percentage of mass change, Sorption [2, 12]: 7.581%
% percentage of mass change, Desorption [2, 13]: 7.898%
% percentage of mass change, Sorption [2, 13]: 7.709%
% percentage of mass change, Desorption [2, 14]: 7.968%
% percentage of mass change, Sorption [2, 14]: 7.840%
% percentage of mass change, Desorption [2, 15]: 8.071%
% percentage of mass change, Sorption [2, 15]: 8.018%
% percentage of mass change, Desorption [2, 16]: 8.141%
% percentage of mass change, Sorption [2, 16]: 8.141%
% percentage of mass change, Desorption [2, 17]: −0.062%
% percentage of mass change, Sorption [2, 17]: −0.041%
% percentage of mass change, Desorption [2, 18]: 0.098%
% percentage of mass change, Sorption [2, 18]: 0.095%
% percentage of mass change, Desorption [2, 19]: 0.273%
% percentage of mass change, Sorption [2, 19]: 0.236%
% percentage of mass change, Desorption [2, 20]: 7.191%
% percentage of mass change, Sorption [2, 20]: 5.345%
% percentage of mass change, Desorption [2, 21]: 7.462%
% percentage of mass change, Sorption [2, 21]: 7.269%
% percentage of mass change, Desorption [2, 22]: 7.649%
% percentage of mass change, Sorption [2, 22]: 7.383%
% percentage of mass change, Desorption [2, 23]: 7.738%
% percentage of mass change, Sorption [2, 23]: 7.492%
% percentage of mass change, Desorption [2, 24]: 7.806%
% percentage of mass change, Sorption [2, 24]: 7.610%
% percentage of mass change, Desorption [2, 25]: 7.872%
% percentage of mass change, Sorption [2, 25]: 7.745%
% percentage of mass change, Desorption [2, 26]: 7.972%
% percentage of mass change, Sorption [2, 26]: 7.925%
% percentage of mass change, Desorption [2, 27]: 8.047%
% percentage of mass change, Sorption [2, 27]: 8.047%

N#Cc1cc2n(CC(=O)Nc3ccc(F)cn3)c(=O)c3ccc(C(F)(F)F)nc3n2n1 [crystal form II of the free base, 2-(2-cyano-5-oxo-8-(trifluoromethyl)pyrazolo[1,5-a]pyrido[3,2-e]pyrimidin-4(5H)-yl)-N-(5-fluoropyridin-2-yl)acetamide free base]
Solubility ([3]; FaSSGF): 0.7 µg/mL (≈ 1.62 µM)
Solubility ([3]; FaSSIF): 1.1 µg/mL (≈ 2.55 µM)
Solubility ([3]; FeSSIF): 2.5 µg/mL (≈ 5.8 µM)
Solubility ([3]; H2O): 0.6 µg/mL (≈ 1.39 µM)
Solubility ([3]; USP Buffer pH 1): 0.6 µg/mL (≈ 1.39 µM)
Solubility ([3]; USP Buffer pH 2): 0.6 µg/mL (≈ 1.39 µM)
Solubility ([3]; USP Buffer pH 3): 1.1 µg/mL (≈ 2.55 µM)
Solubility ([3]; USP Buffer pH 4): 1 µg/mL (≈ 2.32 µM)
Solubility ([3]; USP Buffer pH 5): 0.8 µg/mL (≈ 1.85 µM)
Solubility ([3]; USP Buffer pH 6): 0.6 µg/mL (≈ 1.39 µM)
Solubility ([3]; USP Buffer pH 7): 0.5 µg/mL (≈ 1.16 µM)
Solubility ([3]; USP Buffer pH 8): 0.5 µg/mL (≈ 1.16 µM)

CCS(=O)(=O)O [Ethanesulfonic acid]
Results (salt forming with acid, 1M in EtOH) ([1]; solvent 2-Butanone (250 μL)): Crystal form
Results (salt forming with acid, 1M in EtOH) ([1]; solvent Acetone (400 μL)): Crystal form
Results (salt forming with acid, 1M in EtOH) [1, 4]: Crystal form
Results (salt forming with acid, 1M in EtOH) ([1]; solvent Methanol (400 μL)): Crystal form
Results (salt forming with acid, 1M in EtOH) [1, 5]: Crystal form

Cl [Hydrochloric acid]
Results (salt forming with acid, 1M in EtOH) ([1]; solvent 2-Butanone (250 μL)): Crystal form
Results (salt forming with acid, 1M in EtOH) ([1]; solvent Acetone (400 μL)): Crystal form
Results (salt forming with acid, 1M in EtOH) [1, 4]: Crystal form
Results (salt forming with acid, 1M in EtOH) ([1]; solvent Methanol (400 μL)): Crystal form
Results (salt forming with acid, 1M in EtOH) [1, 5]: Crystal form

— patent US20240376108A1, “SALT AND CRYSTAL FORM OF PYRAZOLE-CONTAINING POLYCYCLIC DERIVATIVE, AND PREPARATION METHOD THEREFOR AND USE THEREOF” (Shanghai Hansoh Biomedical Co., Ltd., priority 2021, published 2024)
